Here are results for ten compounds from ChEMBL document CHEMBL4004890, “RITA Mimics: Synthesis and Mechanistic Evaluation of Asymmetric Linked Trithiazoles” (2017).

The test system of assay [1] is HCT-116. In words: Growth inhibition of human HCT116 cells at 10 uM after 24 hrs by CCK8 assay relative to control. It is filed as functional.
In the next assay the test system is K562. In words: Antiproliferative activity against human K562 cells. It counts as functional.
Assay [2] relates to HCT-116. In words: Growth inhibition of human HCT116 cells after 24 hrs by CCK8 assay. It is filed as functional. The conditions noted are these: HCT-116, 24 h. A general note: Tetrazolium dyes change colour on reduction, which living cells bring about.
Assay [3] concerns HCT-116. In words: Induction of apoptosis in human HCT116 cells at 1 uM after 24 hrs by Annexin-V-FITC/7AAD staining based flow cytometry. It is filed as functional, cell-based. Background: A flow cytometer gives signals particle by particle.
Assay [4] concerns HCT-116. In words: Induction of apoptosis in human HCT116 cells at 10 uM after 24 hrs by Annexin-V-FITC/7AAD staining based flow cytometry. It counts as functional, cell-based.
The subject of assay [5] is HCT-116. In words: Upregulation of p53 expression in human HCT116 cells at 1 uM at 6 hrs post dose by chemiluminescent immunoblotting. It is filed as functional, cell-based. On the technique in general: Immunoblotting shows a protein as a band on a membrane.
Assay [6] relates to HCT-116. In words: Upregulation of p53 expression in human HCT116 cells at 10 uM at 12 hrs post dose by chemiluminescent immunoblotting. It is filed as functional, cell-based.
In assay [7] the test system is HCT-116. In words: Down regulation of c-Myc expression in human HCT116 cells at 1 uM after 6 hrs by chemiluminescent immunoblotting. It is filed as functional, cell-based.
For assay [8], the system named is HCT-116. In words: Down regulation of c-Myc expression in human HCT116 cells at 10 uM after 6 to 24 hrs by chemiluminescent immunoblotting. It counts as functional, cell-based.
Assay [9] has as its system HCT-116. In words: Down regulation of c-Myc expression in human HCT116 cells at 1 uM after 12 to 24 hrs by chemiluminescent immunoblotting. It counts as functional, cell-based.
The subject of assay [10] is HCT-116. In words: Down regulation of Mcl-1 expression in human HCT116 cells at 1 to 10 uM after 6 to 24 hrs by chemiluminescent immunoblotting. It is filed as functional, cell-based.
For assay [11], the system named is HCT-116. In words: Antiproliferative activity against human HCT116 cells. It is filed as functional.
The next assay concerns CCRF-CEM. In words: Antiproliferative activity against human CCRF-CEM cells. It is filed as functional.

The source made the active and inactive calls. The calls are words filed in the database; no cut-off is given here. A value given as a limit tells only on which side of the number the result lay.

With `CC(C)(C)OC(=O)N[C@@H](Cc1ccccc1)c1nc(-c2nc(-c3nc(C(N)=O)cs3)cs2)cs1`, the “growth inhibition (GI)” value in the assay with HCT-116 [1] was “inactive”. By GI50 is commonly meant the concentration giving 50% growth inhibition. On to `Cc1nc(Nc2ncc(C(=O)Nc3c(C)cccc3Cl)s2)cc(N2CCN(CCO)CC2)n1` [DASATINIB], for which the GI50 with K562 was less than 1 nM. As for `CCOC(=O)c1csc(-c2csc(-c3csc([C@H](Cc4ccccc4)NC(=O)OC(C)(C)C)n3)n2)n1`, the “growth inhibition (GI)” value with HCT-116 [1] is “inactive”. Take `CC(C)(C)OC(=O)N1Cc2ccccc2C[C@H]1c1nc(-c2nc(-c3nc(C(N)=O)cs3)cs2)cs1`: the “growth inhibition (GI)” value in the assay on HCT-116 [1] was “inactive”. Still for that read-out and setting: under `CCOC(=O)c1csc(-c2csc(-c3csc([C@@H]4Cc5ccccc5CN4C(=O)OC(C)(C)C)n3)n2)n1` stands “inactive”. The same measure, in the same setting: then `CCOC(=O)c1csc(-c2csc(-c3csc([C@H](N)Cc4ccccc4)n3)n2)n1`, with “inactive”. For the compound `OCc1ccc(-c2ccc(-c3ccc(CO)s3)o2)s1`, the GI50 with HCT-116 [2] was 800 nM; with HCT-116 [11], 110 nM. Further, the result in the assay on HCT-116 [3], with HCT-116 [4], in the assay with HCT-116 [5], in the assay on HCT-116 [6], with HCT-116 [7] and in the assay with HCT-116 [8] was Active. For the same compound, in the assay on HCT-116 [10], the result was Active. In addition, the result in the assay on HCT-116 [9] was inactive. As for `CCOC(=O)c1csc(-c2csc(-c3csc([C@@H](N)Cc4ccccc4)n3)n2)n1`, the “growth inhibition (GI)” value with HCT-116 [1] was “inactive”.

For the compound `CC(C)(C)OC(=O)N[C@H](Cc1ccccc1)c1nc(-c2nc(-c3nc(C(N)=O)cs3)cs2)cs1`, in the assay with HCT-116 [1], the “growth inhibition (GI)” value is “inactive”.

As to `CN[C@@H](C)C(=O)N[C@H](C(=O)N1CCC[C@H]1c1nc(C(=O)c2ccc(F)cc2)cs1)C1CCCCC1` [LCL-161], halving of growth in the assay with CCRF-CEM (GI50) required 250 nM.
